Laboratory results from patent US9529006B1, “Method for direct detection of lipid binding agents in membrane” (KING SAUD UNIVERSITY, priority 2015, dated 2016).
Where a SMILES comes first, the peptide text is derived from it. [ ]: non-standard residue; d: D form. Phe(ol) = N[C@H](CO)Cc1ccccc1; Aib = CC(C)(N)C(=O)O

Assays:
[1] = Electrophysiology, gA and Alm channel currents in lipid bilayer; conditions: for conductance events in channels in lipid bilayer: gA V=200 mV, Alm V=150 mV
Description: (§1) As defined herein, a liposome is a spherical vesicle having at least one lipid bilayer. The liposome can be used as a vehicle for administration of nutrients and pharmaceutical drugs. Liposomes can be prepared routinely by disrupting biological membranes (such as by sonication). Two different kinds of processes to address membrane effects of all three different classes of MAAs were developed. First, the electrophysiology (EP) trials were performed to record membrane currents across lipid bilayer membranes doped with AMPs (antimicrobial peptides) or CDs (chemotherapy drugs). This technique helps to detect the presence of any stable, semi-stable or transient structures that might be induced into the lipid bilayer membrane as a result of MAA-lipid coexistence. To understand the membrane effect of aptamers, fluorescence (FL) measurements on liposome bound aptamers were performed. This method helps to understand the general lipid membrane binding of aptamers.
The membrane effects of AMPs were tested using established electrophysiology technique. Here, gA (gramicidin A) monomer with 15 amino acids was used for constructing gA channels and Alm (alamethicin) monomers were used for constructing Alm channels in a bilayer constructed using lipid 1,2-Dioleoyl-sn-Glycero-3-Phosphocholine. For the membrane effects of CDs, planar lipid bilayers were formed by applying a lipid cocktail of Phosphoethanolamine: phosphatydyleserine: phosphatidylcholine (5:3:2, v/v/v)/n-decane using the painting method over a 150 μm septum of a bilayer cuvette. The aptamer-lipid binding aspects were addressed by preparing liposomes using liposome technology. The liposomes were prepared with 1,2-dipalmitoyl-sn-glycero-3-phosphatidylcholine (DPPC) and 1,2-dipalmitoyl-sn-glycero-3-phospho-L-serine (sodium salt) (DPPS). Buffer with the liposome-bound and unbound aptamers containing 6-carboxyfluorescein (6-FAM) fluorescent tag attached at the 3′ end of the DNA sequence was separated using standard binding assay. The solution with bound aptamers was then investigated for fluorescence quantification. The following examples will further illustrate the direct detection method (DDM).
Membrane currents across lipid bilayer membranes doped with antimicrobial peptides (AMPs) or chemotherapy drugs (CDs) were investigated. The pattern of the general time dependent ion pore conducting current fluctuations is MAA specific. The amplitude and stability of the current events are found to vary due to the differences in the structures of MAAs. Some ion pores conduct currents with constant amplitudes over a period of time considered as pore lifetime. While a few other pores are found to conduct currents with fluctuating amplitudes over their lifetimes.
The gA channel activity was recorded at V=200 mV and Alm at V=150 mV. Here IgA=29±2, 113±5, 243±9 and 386±10 pA respectively are the discrete current levels 0, 1, 2, 3, . . . , etc. in Alm channel. Traces representing gA and Alm channel activities in phospholipid bilayers were recorded at filter frequencies 2 kHz and 20 kHz, respectively. A lower filter frequency for traces representing gA channel activity is alright because of the channel's relatively higher stability. In (B) the point count plots of the current traces through gA and Alm channels peak at discrete values of conductance.
AMP gA is reported to induce conductance events that conducts constant current IgA pA over its lifetime τgA. At the formation and breaking of a gA channel the current undergoes transitions between 0→IgA pA and IgA→0 pA respectively. The current transitions between 0 ? IgA pA happen instantaneously that means current transitions take almost no time. Here, IgA is constant (˜in low range pA) for any gA channel but TO appears with all possible values within a range 0 to a very high value in ms order]. With varied number of amino acids in gA monomer the value of both IgA and τgA vary. Detailed analysis can be found in ref. [2-6]. […]

[2] = Electrophysiology, membrane currents across planar lipid bilayers doped with chemotherapy drugs; conditions: 90 μM, pH=5.7, V=100 mV
Description: The gA channel activity was recorded at V=200 mV and Alm at V=150 mV. […] Traces representing gA and Alm channel activities in phospholipid bilayers were recorded at filter frequencies 2 kHz and 20 kHz, respectively.

[3] = Fluorescence measurements on liposome bound aptamers, liposomes containing PS; assay type: binding; conditions: liposomes containing 10% PS (DPPC and DPPS 9:1); 6-FAM tagged aptamer
Description: as §1, with “This technique helps to detect the presence of any stable, semi-stable or transient structures that might be induced into the lipid bilayer membrane as a result of MAA-lipid coexistence.” left out, “This method helps to understand the general lipid membrane binding of aptamers.” left out
(§2) The membrane effects of AMPs were tested using established electrophysiology technique. […] The solution with bound aptamers was then investigated for fluorescence quantification. […]
(§3) The aptamer-lipid binding aspects were addressed by preparing liposomes using known liposome technology. […] The solution with bound aptamers was then investigated for fluorescence quantification.
(§4) Binding affinity and selectivity of designed DNA aptamers were measured. […] The fluorescence (FL) measured in relative fluorescence units (RFU) is plotted against the [DNA] aptamer concentration. […]

[4] = Fluorescence measurements on liposome bound aptamers, liposome containing only PC; assay type: binding; conditions: liposomes containing no PS
Description: as §1, with “This technique helps to detect the presence of any stable, semi-stable or transient structures that might be induced into the lipid bilayer membrane as a result of MAA-lipid coexistence.” left out, “This method helps to understand the general lipid membrane binding of aptamers.” left out
as §2, §3, §4

In the case of CC(=O)NC(C)(C)C(=O)N1CCC[C@H]1C(=O)NC(C)(C)C(=O)N[C@@H](C)C(=O)NC(C)(C)C(=O)N[C@@H](C)C(=O)N[C@@H](CCC(N)=O)C(=O)NC(C)(C)C(=O)N[C@H](C(=O)NC(C)(C)C(=O)NCC(=O)N[C@@H](CC(C)C)C(=O)NC(C)(C)C(=O)N1CCC[C@H]1C(=O)N[C@H](C(=O)NC(C)(C)C(=O)NC(C)(C)C(=O)N[C@@H](CCC(=O)O)C(=O)N[C@@H](CCC(N)=O)C(=O)N[C@H](CO)Cc1ccccc1)C(C)C)C(C)C [Alm, alamethicin] (Ac-[Aib]P[Aib]A[Aib]AQ[Aib]V[Aib]GL[Aib]PV[Aib][Aib]EQ[Phe(ol)]), the “discrete current level 0 in Alm channel” value ([1]; V=150 mV, level 0) is reported as 29±2 pA, the “discrete current level 1 in Alm channel” value ([1]; V=150 mV, level 1) is reported as 113±5 pA and the “discrete current level 2 in Alm channel” value ([1]; V=150 mV, level 2) is reported as 243±9 pA. The “discrete current level 3 in Alm channel” value ([1]; V=150 mV, level 3) was 386±10 pA and the “conductance events in channels in lipid bilayer” value [1] was “rectangular-shape conductance events”.
For COc1c(O[C@@H]2O[C@H](CO)[C@@H](O)[C@H](O)[C@H]2O)cc2c(c1OC)-c1ccc(SC)c(=O)cc1[C@@H](NC(C)=O)CC2 [TCC, thiocolchicoside], the “conductance events induced in lipid bilayer” value [2] was “triangular-shaped conductance events”.
In the case of “SIIAp1: designed DNA aptamer, sequence (5′ → 3′) CAGAAAAAAAC (DNA, backbone and methylation of C not given here; further chemistry not fully specified)”, the “binding of aptamer with liposomes containing PS (fluorescence, RFU vs [DNA])” value [3] is reported as “selective binding” and the “binding of aptamer with liposome containing only PC (fluorescence)” value [4] is reported as “low non-specific binding”.
In the case of “SIIAp2: designed DNA aptamer, sequence (5′ → 3′) CAGAAAAAAAT (DNA, backbone and methylation of C not given here; further chemistry not fully specified)”, the “binding of aptamer with liposomes containing PS (fluorescence, RFU vs [DNA])” value [3] is reported as “selective binding”.
For gramicidin A [gA], the “conductance events in channels in lipid bilayer” value [1] was “rectangular-shape conductance events”.
